Here are results for four compounds from patent publication US5164300A, “Method for determining activity of retroviral protease” (Washington University, priority 1990, dated 1992).

In experiment [1] the target is T1, HIV protease (HIV-1 M:B_ARV2/SF2, UniProt P03369).
T1 construct: synthetic [Aba67,Aba95] homodimer (Schneider and Kent) or cloned enzyme from E. coli, interchangeably
The experiment is described as follows: HPLC HIV protease assay (cleavage of peptide substrates). It counts as biochemical, human immunodeficiency virus (HIV). The protocol:
HPLC Assay. The HPLC HIV protease assay was conducted using either synthetic HIV protease [Schneider and Kent, Cell 54, 363-368 (1988)] in which the two Cys residues (Cys^67, Cys^95) were replaced by the isosteric α-aminobutyric acid to eliminate the complications of free sulfhydryl groups, or cloned material expressed in E. coli. In all cases examined, the cleavage patterns and inhibition results were identical. Synthetic HPLC-purified protease (0.05 mg/ml) was dissolved in assay buffer (20 mM phosphate, 20% glycerol, 0.1% CHAPS, pH 6.4). 20 μl of 0.1 mM substrate was mixed with 20 μl assay buffer and 10 μl of HIV protease stock were added and then incubated at 25° for the desired time. The reaction was stopped by the addition of 50 μl of 10% TFA. The sample was applied to a C18 HPLC column developed with 0.05% TFA for 5 min followed by a gradient of 0- 40% acetonitrile in 40 min. For inhibitor studies, 10 μl of the protease solution was preincubated at 25° for 10 min with the 20 μl of 0.1 mM inhibitor (dissolved in DMSO and diluted to 0.1 mM with assay buffer). Then 20 μl of test substrate, acetyl-Thr-Ile-Met-Met-Gln-Arg-NH2 or Abz-NF^* -6, was added in order to determine inhibition of cleavage. Reactions were stopped and cleavage rates were monitored by HPLC as above. […]
Fluorescence Assay. Fluorescence measurements on 96-well ELISA plates were made with the Titertek Fluoroskan II, version 3.1. […] Ten μl of a stock solution (0.1 mg/ml) of HIV protease was incubated with five different concentrations of Abz-NF^* -6 in a final volume of 100 μl at 37° C. with the increase in fluorescence monitored in each well every five minutes. […] A standard curve relating changes in fluorescent intensity to changes in concentration of product was used to convert fluorescence changes into molar velocities. […] Sixty μl of 10% TFA was added to stop the reaction and the amount of cleavage determined by HPLC. […] By the amount of substrate remaining, an estimated Ki allows appropriate choice of concentration ranges for the inhibitor for the fluorescence assay.

Experiment [2] deals with purified HIV protease expressed in E. coli. The settings on record: estimated, Nashed et al.; cited from earlier work.
Experiment [3] deals with T2, synthetic HIV protease (HIV-1 M:B_ARV2/SF2, UniProt P03369).
T2 construct: homodimer
As to the kind of experiment: Fluorescence assay, kinetic measurements of cleavage by synthetic HIV protease. The experiment is classed as biochemical, human immunodeficiency virus (HIV). As to the method: Fluorescence Assay. Fluorescence measurements on 96-well ELISA plates were made with the Titertek Fluoroskan II, version 3.1. An excitation filter of 355 nm and an emission filter of 430 nm was used. Ten μl of a stock solution (0.1 mg/ml) of HIV protease was incubated with five different concentrations of Abz-NF^* -6 in a final volume of 100 μl at 37° C. with the increase in fluorescence monitored in each well every five minutes. A stock solution of 1 mM Abz-NF^* -6 in DMSO was used. A standard curve relating changes in fluorescent intensity to changes in concentration of product was used to convert fluorescence changes into molar velocities. In order to predetermine the concentration range for Ki determination of inhibitors, it was found convenient to do a preliminary assay by HPLC. Twenty μl of 0.1 mM inhibitor in assay buffer (pH 6.4) and 10 μl of HIV protease (stock solution of 0.05 mg/ml) were preincubated for 5-10 min at 25° C. Twenty μl of 0.1 mM Abz-NF^* -6 was added and the reaction continued for 1 hour. Sixty μl of 10% TFA was added to stop the reaction and the amount of cleavage determined by HPLC. […] By the amount of substrate remaining, an estimated Ki allows appropriate choice of concentration ranges for the inhibitor for the fluorescence assay.
The chromogenic substrates of Nashed et al., Biochem. Biophys. Res. Commun. 163, 1079-1085 (1989), had Km 's estimated to be greater than […].

Where a SMILES comes first, the peptide text is derived from it. [ ]: non-standard residue; d: D form. Phe(4-NO2) = N[C@@H](Cc1ccc([N+](=O)[O-])cc1)C(=O)O; Nle = CCCC[C@H](N)C(=O)O; 2Abz = Nc1ccccc1C(=O)O

Consider `CCCC[C@H](NC(=O)[C@@H](NC(=O)c1ccccc1N)[C@@H](C)CC)C(=O)N[C@@H](Cc1ccc([N+](=O)[O-])cc1)C(=O)N[C@@H](CCC(N)=O)C(=O)N[C@@H](CCCNC(=N)N)C(N)=O` [Abz-Ile-Nle-Phe(p-NO2)-Gln-Arg-NH2] (H-[2Abz]I[Nle][Phe(4-NO2)]QR-NH2), for which the cleavage efficiency result in experiment [1] (analog with the Abz group at position P3, compared with Abz-NF*-6) is given as “dramatically reduced”.
`CC(C)C[C@H](NC(=O)[C@@H]1CCCN1C(=O)[C@H](Cc1ccc([N+](=O)[O-])cc1)NC(=O)[C@H](C)NC(=O)[C@H](CCC(N)=O)NC(=O)[C@H](Cc1ccccc1)NC(=O)[C@@H](N)[C@@H](C)O)C(=O)N[C@@H](CCCNC(=N)N)C(=O)N[C@@H](C)C(=O)O` [H-Thr-Phe-Gln-Ala-Phe(p-NO2)-Pro-Leu-Arg-Ala-OH] (H-TFQA[Phe(4-NO2)]PLRA-OH): in experiment [2], the “ratio Kcat /Km” value is listed as ~23,000 M^-1 s^-1.
On to `CCCC[C@H](NC(=O)[C@@H](NC(=O)[C@@H](NC(=O)c1ccccc1N)[C@@H](C)O)[C@@H](C)CC)C(=O)N[C@@H](Cc1ccc([N+](=O)[O-])cc1)C(=O)N[C@@H](CCC(N)=O)C(=O)N[C@@H](CCCNC(=N)N)C(N)=O` [Abz-NF^* -6, Abz-Thr-Ile-Nle-Phe(p-NO2)-Gln-Arg-NH2] (H-[2Abz]TI[Nle][Phe(4-NO2)]QR-NH2), for which the Km in experiment [3] (Lineweaver-Burk plot, velocities from the linear phase) was 110 µM. Further, in experiment [3] (synthetic HIV protease), the Kcat was found to be 2.9 s⁻¹, the Vmax is on record as 3.45 mM-mil^-1 and the “ratio Kcat /Km” value is listed as 26,364 M^-1 s^-1. Besides, in experiment [1] (0.1 mM substrate, 1 hour, in the absence of inhibition), the “amount of cleavage determined by HPLC” value is “complete cleavage”.
`CCCC[C@H](NC(=O)[C@@H](NC(=O)[C@@H](NC(C)=O)[C@@H](C)O)[C@@H](C)CC)C(=O)N[C@@H](Cc1ccc([N+](=O)[O-])cc1)C(=O)N[C@@H](CCC(N)=O)C(=O)N[C@@H](CCCNC(=N)N)C(N)=O` [Ac-Thr-Ile-Nle-Phe(p-NO2)-Gln-Arg-NH2] (Ac-TI[Nle][Phe(4-NO2)]QR-NH2): the “cleavage under the conditions of HPLC assay” value in experiment [1] (incubation times of one hour) is reported as “showed cleavage”.

In general, Km refers to the substrate concentration at which the rate is half of its maximum.
